Assay results reported in ChEMBL document CHEMBL3044826, “Design, synthesis and biological evaluation of some novel substituted 2-mercapto-3-phenethylquinazolines as antitumor agents” (2013).

Legend:
Format in all cases: functional
[1] = tested on: SF-539; assay: Cytotoxicity against Homo sapiens (human) SF539 cells assessed as growth inhibition at 10 uM after 48 hr by coulter counter analysis; conditions: SF-539, 48 h, read-out: GI
[2] = tested on: OVCAR-3; assay: Cytotoxicity against Homo sapiens (human) OVCAR3 cells assessed as growth inhibition at 10 uM after 48 hr by coulter counter analysis; conditions: OVCAR-3, 48 h, read-out: GI
[3] = tested on: SF-295; assay: Cytotoxicity against Homo sapiens (human) SF295 cells assessed as growth inhibition at 10 uM after 48 hr by coulter counter analysis; conditions: SF-295, 48 h, read-out: GI
[4] = tested on: NCI-H322M; assay: Cytotoxicity against Homo sapiens (human) NCI-H322M cells assessed as growth inhibition at 10 uM after 48 hr by coulter counter analysis; conditions: read-out: GI
[5] = tested on: HCT-116; assay: Cytotoxicity against Homo sapiens (human) HCT116 cells assessed as growth inhibition at 10 uM after 48 hr by coulter counter analysis; conditions: HCT-116, 48 h, read-out: GI
[6] = tested on: HT-29; assay: Cytotoxicity against Homo sapiens (human) HT-29 cells assessed as growth inhibition at 10 uM after 48 hr by coulter counter analysis; conditions: HT-29, 48 h, read-out: GI
[7] = tested on: DU-145; assay: Cytotoxicity against Homo sapiens (human) DU145 cells assessed as growth inhibition at 10 uM after 48 hr by coulter counter analysis; conditions: DU-145, 48 h, read-out: GI
[8] = tested on: UO-31; assay: Cytotoxicity against Homo sapiens (human) UO31 cells assessed as growth inhibition at 10 uM after 48 hr by coulter counter analysis; conditions: UO-31, 48 h, read-out: GI
[9] = tested on: UACC-62; assay: Cytotoxicity against Homo sapiens (human) UACC62 cells assessed as growth inhibition at 10 uM after 48 hr by coulter counter analysis; conditions: UACC-62, 48 h, read-out: GI
[10] = tested on: PC-3; assay: Cytotoxicity against Homo sapiens (human) PC3 cells assessed as growth inhibition at 10 uM after 48 hr by coulter counter analysis; conditions: PC-3, 48 h, read-out: GI
[11] = tested on: SK-MEL-28; assay: Cytotoxicity against Homo sapiens (human) SK-MEL-28 cells assessed as growth inhibition at 10 uM after 48 hr by coulter counter analysis; conditions: SK-MEL-28, 48 h, read-out: GI
[12] = Cytotoxicity against Homo sapiens (human) NCI-ADR-RES cells assessed as growth inhibition at 10 uM after 48 hr by coulter counter analysis; conditions: read-out: GI
[13] = tested on: SF-268; assay: Cytotoxicity against Homo sapiens (human) SF268 cells assessed as growth inhibition at 10 uM after 48 hr by coulter counter analysis; conditions: SF-268, 48 h, read-out: GI
[14] = tested on: MDA-MB-468; assay: Cytotoxicity against Homo sapiens (human) MDA-MB-468 cells assessed as growth inhibition at 10 uM after 48 hr by coulter counter analysis; conditions: MDA-MB-468, 48 h, read-out: GI
[15] = tested on: COLO 205; assay: Cytotoxicity against Homo sapiens (human) COLO205 cells assessed as growth inhibition at 10 uM after 48 hr by coulter counter analysis; conditions: COLO 205, 48 h, read-out: GI
[16] = tested on: RXF 393; assay: Cytotoxicity against Homo sapiens (human) RXF393 cells assessed as growth inhibition at 10 uM after 48 hr by coulter counter analysis; conditions: RXF 393, 48 h, read-out: GI
[17] = tested on: HCT-15; assay: Cytotoxicity against Homo sapiens (human) HCT15 cells assessed as growth inhibition at 10 uM after 48 hr by coulter counter analysis; conditions: HCT-15, 48 h, read-out: GI
[18] = tested on: KM12; assay: Cytotoxicity against Homo sapiens (human) KM12 cells assessed as growth inhibition at 10 uM after 48 hr by coulter counter analysis; conditions: KM12, 48 h, read-out: GI
[19] = tested on: SK-OV-3; assay: Cytotoxicity against Homo sapiens (human) SKOV3 cells assessed as growth inhibition at 10 uM after 48 hr by coulter counter analysis; conditions: SK-OV-3, 48 h, read-out: GI
[20] = tested on: ACHN; assay: Cytotoxicity against Homo sapiens (human) ACHN cells assessed as growth inhibition at 10 uM after 48 hr by coulter counter analysis; conditions: read-out: GI
[21] = tested on: TK-10; assay: Cytotoxicity against Homo sapiens (human) TK10 cells assessed as growth inhibition at 10 uM after 48 hr by coulter counter analysis; conditions: TK-10, 48 h, read-out: GI
[22] = tested on: OVCAR-4; assay: Cytotoxicity against Homo sapiens (human) OVCAR4 cells assessed as growth inhibition at 10 uM after 48 hr by coulter counter analysis; conditions: OVCAR-4, 48 h, read-out: GI
[23] = tested on: OVCAR-5; assay: Cytotoxicity against Homo sapiens (human) OVCAR5 cells assessed as growth inhibition at 10 uM after 48 hr by coulter counter analysis; conditions: OVCAR-5, 48 h, read-out: GI
[24] = tested on: SNB-19; assay: Cytotoxicity against Homo sapiens (human) SNB19 cells assessed as growth inhibition at 10 uM after 48 hr by coulter counter analysis; conditions: SNB-19, 48 h, read-out: GI
[25] = tested on: MCF7; assay: Cytotoxicity against Homo sapiens (human) MCF7 cells assessed as growth inhibition at 10 uM after 48 hr by coulter counter analysis; conditions: MCF7, 48 h, read-out: GI
[26] = tested on: SW-620; assay: Cytotoxicity against Homo sapiens (human) SW620 cells assessed as growth inhibition at 10 uM after 48 hr by coulter counter analysis; conditions: SW-620, 48 h, read-out: GI
[27] = tested on: NCI-H23; assay: Cytotoxicity against Homo sapiens (human) NCI-H23 cells assessed as growth inhibition at 10 uM after 48 hr by coulter counter analysis; conditions: NCI-H23, 48 h, read-out: GI
[28] = tested on: LOX IMVI; assay: Cytotoxicity against Homo sapiens (human) LOXIMVI cells assessed as growth inhibition at 10 uM after 48 hr by coulter counter analysis; conditions: read-out: GI
[29] = tested on: CAKI-1; assay: Cytotoxicity against Homo sapiens (human) Caki1 cells assessed as growth inhibition at 10 uM after 48 hr by coulter counter analysis; conditions: CAKI-1, 48 h, read-out: GI
[30] = tested on: Malme-3M; assay: Cytotoxicity against Homo sapiens (human) MALME-3M cells assessed as growth inhibition at 10 uM after 48 hr by coulter counter analysis; conditions: read-out: GI
[31] = tested on: OVCAR-8; assay: Cytotoxicity against Homo sapiens (human) OVCAR8 cells assessed as growth inhibition at 10 uM after 48 hr by coulter counter analysis; conditions: OVCAR-8, 48 h, read-out: GI
[32] = tested on: M14; assay: Cytotoxicity against Homo sapiens (human) M14 cells assessed as growth inhibition at 10 uM after 48 hr by coulter counter analysis; conditions: M14, 48 h, read-out: GI
[33] = tested on: MDA-MB-231; assay: Cytotoxicity against Homo sapiens (human) MDA-MB-231 cells assessed as growth inhibition at 10 uM after 48 hr by coulter counter analysis; conditions: MDA-MB-231, 48 h, read-out: GI
[34] = tested on: IGROV-1; assay: Cytotoxicity against Homo sapiens (human) IGROV1 cells assessed as growth inhibition at 10 uM after 48 hr by coulter counter analysis; conditions: IGROV-1, 48 h, read-out: GI

Row | SMILES | inhibition of growth at 10 µM [1] [%] | inhibition of growth at 10 µM [2] [%] | inhibition of growth at 10 µM [3] [%] | inhibition of growth at 10 µM [4] [%] | inhibition of growth at 10 µM [5] [%] | inhibition of growth at 10 µM [6] [%] | inhibition of growth at 10 µM [7] [%] | inhibition of growth at 10 µM [8] [%] | inhibition of growth at 10 µM [9] [%] | inhibition of growth at 10 µM [10] [%] | inhibition of growth at 10 µM [11] [%] | inhibition of growth at 10 µM [12] [%] | inhibition of growth at 10 µM [13] [%] | inhibition of growth at 10 µM [14] [%] | inhibition of growth at 10 µM [15] [%] | inhibition of growth at 10 µM [16] [%] | inhibition of growth at 10 µM [17] [%] | inhibition of growth at 10 µM [18] [%] | inhibition of growth at 10 µM [19] [%] | inhibition of growth at 10 µM [20] [%] | further results
1 | O=c1c2ccccc2[nH]c(=S)n1CCc1ccccc1 | < 10 | < 10 | 13 | < 10 | 18 | < 10 | < 10 | 33 | 20 | 13 | < 10 | < 10 | < 10 | 22 | < 10 | < 10 | < 10 | < 10 | < 10 | < 10 | inhibition of growth at 10 µM [21]: < 10%; inhibition of growth at 10 µM [22]: < 10%; inhibition of growth at 10 µM [23]: < 10%; inhibition of growth at 10 µM [24]: < 10%; inhibition of growth at 10 µM [25]: 31%; inhibition of growth at 10 µM [26]: < 10%; inhibition of growth at 10 µM [27]: < 10%; inhibition of growth at 10 µM [28]: < 10%; inhibition of growth at 10 µM [29]: < 10%; inhibition of growth at 10 µM [30]: < 10%; inhibition of growth at 10 µM [31]: < 10%; inhibition of growth at 10 µM [32]: < 10%; inhibition of growth at 10 µM [33]: < 10%; inhibition of growth at 10 µM [34]: < 10%
2 | O=C(CSc1nc2ccccc2c(=O)n1CCc1ccccc1)c1ccc(F)cc1 | 13 | < 10 | < 10 | 13 | 18 | < 10 | < 10 | 42 | < 10 | 13 | < 10 | < 10 | 25 | < 10 | < 10 | < 10 | < 10 | < 10 | < 10 | 24 | inhibition of growth at 10 µM [21]: < 10%; inhibition of growth at 10 µM [22]: < 10%; inhibition of growth at 10 µM [23]: < 10%; inhibition of growth at 10 µM [24]: < 10%; inhibition of growth at 10 µM [25]: < 10%; inhibition of growth at 10 µM [26]: < 10%; inhibition of growth at 10 µM [27]: 20%; inhibition of growth at 10 µM [28]: < 10%; inhibition of growth at 10 µM [29]: 21%; inhibition of growth at 10 µM [30]: < 10%; inhibition of growth at 10 µM [31]: 31%; inhibition of growth at 10 µM [32]: < 10%; inhibition of growth at 10 µM [33]: 23%; inhibition of growth at 10 µM [34]: 21%
3 | CSc1nc2ccccc2c(=O)n1CCc1ccccc1 | < 10 | < 10 | < 10 | < 10 | 37 | < 10 | < 10 | 37 | 12 | 33 | < 10 | 18 | < 10 | 84 | 19 | 30 | 39 | 28 | < 10 | 34 | inhibition of growth at 10 µM [21]: < 10%; inhibition of growth at 10 µM [22]: 21%; inhibition of growth at 10 µM [23]: < 10%; inhibition of growth at 10 µM [24]: < 10%; inhibition of growth at 10 µM [25]: 34%; inhibition of growth at 10 µM [26]: 12%; inhibition of growth at 10 µM [27]: 16%; inhibition of growth at 10 µM [28]: 11%; inhibition of growth at 10 µM [29]: < 10%; inhibition of growth at 10 µM [30]: < 10%; inhibition of growth at 10 µM [31]: < 10%; inhibition of growth at 10 µM [32]: < 10%; inhibition of growth at 10 µM [33]: 30%; inhibition of growth at 10 µM [34]: 24%
4 | O=c1c2ccccc2nc(SCCN2CCOCC2)n1CCc1ccccc1 | < 10 | < 10 | < 10 | < 10 | < 10 | < 10 | < 10 | 14 | < 10 | 14 | < 10 | < 10 | < 10 | < 10 | < 10 | < 10 | < 10 | < 10 | < 10 | < 10 | inhibition of growth at 10 µM [21]: < 10%; inhibition of growth at 10 µM [22]: < 10%; inhibition of growth at 10 µM [23]: < 10%; inhibition of growth at 10 µM [24]: < 10%; inhibition of growth at 10 µM [25]: < 10%; inhibition of growth at 10 µM [26]: < 10%; inhibition of growth at 10 µM [27]: < 10%; inhibition of growth at 10 µM [28]: < 10%; inhibition of growth at 10 µM [29]: < 10%; inhibition of growth at 10 µM [30]: < 10%; inhibition of growth at 10 µM [31]: < 10%; inhibition of growth at 10 µM [32]: < 10%; inhibition of growth at 10 µM [33]: < 10%; inhibition of growth at 10 µM [34]: < 10%
5 | CCn1c(S)nnc1CSc1nc2ccccc2c(=O)n1CCc1ccccc1 | < 10 | < 10 | < 10 | 27 | 35 | < 10 | < 10 | 24 | 15 | 17 | < 10 | 27 | < 10 | 15 | < 10 | < 10 | 12 | < 10 | < 10 | 15 | inhibition of growth at 10 µM [21]: < 10%; inhibition of growth at 10 µM [22]: 15%; inhibition of growth at 10 µM [23]: < 10%; inhibition of growth at 10 µM [24]: < 10%; inhibition of growth at 10 µM [25]: 16%; inhibition of growth at 10 µM [26]: < 10%; inhibition of growth at 10 µM [27]: < 10%; inhibition of growth at 10 µM [28]: 26%; inhibition of growth at 10 µM [29]: < 10%; inhibition of growth at 10 µM [30]: < 10%; inhibition of growth at 10 µM [31]: 11%; inhibition of growth at 10 µM [32]: 12%; inhibition of growth at 10 µM [33]: 18%; inhibition of growth at 10 µM [34]: < 10%
